Changes are numbered by the printed parent chain. Read-outs that look alike come from different tables or passages of the source.
Legend:
ERα = target: T1, ERα (Homo sapiens, UniProt P03372); test: In vivo ERα degradation in MCF7 xenograft tumors (immunoblot); parameters: species or system NOD/SCID mice; settings: MCF7/estradiol model, fulvestrant 200 mg/kg
T1 construct: robustly degrades ER in ER-positive breast cancer cell lines; endogenous in cells; host or cells: MCF7, T47D (cell culture); MCF7 and tamoxifen-resistant MCF7 xenograft tumours in mice
T1 sequence (P03372 1-595): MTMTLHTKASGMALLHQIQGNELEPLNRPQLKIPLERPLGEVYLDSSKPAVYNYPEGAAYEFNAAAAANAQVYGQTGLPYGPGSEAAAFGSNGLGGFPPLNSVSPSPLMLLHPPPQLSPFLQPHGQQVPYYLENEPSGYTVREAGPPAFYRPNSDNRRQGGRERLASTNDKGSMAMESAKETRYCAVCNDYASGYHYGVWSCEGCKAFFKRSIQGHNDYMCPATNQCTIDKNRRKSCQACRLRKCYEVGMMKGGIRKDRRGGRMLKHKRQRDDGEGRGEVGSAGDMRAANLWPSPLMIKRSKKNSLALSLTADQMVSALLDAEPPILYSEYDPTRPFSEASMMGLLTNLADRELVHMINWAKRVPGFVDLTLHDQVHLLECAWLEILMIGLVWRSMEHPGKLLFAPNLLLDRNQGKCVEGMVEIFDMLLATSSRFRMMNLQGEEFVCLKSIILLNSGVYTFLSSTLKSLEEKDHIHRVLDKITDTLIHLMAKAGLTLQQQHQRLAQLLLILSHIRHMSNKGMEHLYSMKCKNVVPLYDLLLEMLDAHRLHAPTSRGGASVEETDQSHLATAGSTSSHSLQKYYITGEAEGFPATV
Description: Approximately 18 hours after the final administration, mice were sacrificed, and MCF7 xenografts were harvested and lysed to determine ER levels by immunoblotting. […] Diet was supplemented with peanut butter to help maintain body weights.
Species: NOD/SCID female mice (Charles River, 6-7 weeks old upon arrival).
Animal handling: Axial mammary fat pad implantation of 5×10^6 MCF7 cells/200 per mouse (17β-estradiol 0.36 mg 90-day pellet implanted day before).
Dosing: Oral (gavage), once a day (QD) for 3 days (QD×3). Vehicle: 2% Tween80/PEG400 (‘PEG/Tween’).
Sampling: Terminal sacrifice was ˜18 hrs after last dose; tumors were harvested, divided and flash frozen. ERα levels were determined by immunoblotting.
Cell Lysis: flash frozen tumors were removed from −80° C. storage and placed on dry ice. RIPA lysis buffer and Halt protease inhibitors were used at 400 μl per tumor sample. A steel ball (5 mm) was placed in each sample for tissue disruption. Samples were lysed with TissueLyzer at 24 Hz for 4 minutes. The homogenization was stopped half way through the process and the block flipped over for the duration of the process. Steel beads were pulled out of the tubes and the lysates were spun down at 21,000×g for 15 minutes at 4° C. Lysates were then measured for total protein concentration by BCA (per manufacturer's protocol).
Detection of proteins by immunoblot: lysates were mixed with sample buffer and reducing agent (per manufacturer's protocol). Samples were denatured at 95° C. for 5 minutes in thermal cycler. Samples were cooled and spun down (5000×g; 1 minute) prior to loading on gel. Gels were loaded with 10 μg total protein per lane. Samples were loaded on 4-15% Criterion Tris/Glycine gels and run for 25 minutes at 250 constant volts in 1×Tris/Glycine/SDS buffer. Protein was transferred from gels to nitrocellulose with Bio-Rad Turbo on default setting. All blots were rinsed with distilled water and blocked for 1 hour at RT in 5% BSA in TBS-T (TBS with 0.1% Tween) on rocker. The blots were cut so that beta-actin and ERα can be detected from the same lane/sample.
Blots were incubated with primary antibody in 5% BSA in TBST (0.1%) overnight at 4° C. on rocker:
Blot was washed with TBST (0.1%) three times for 5 minutes on rocker at RT. Secondary antibody was added, and blots incubated at RT on rocker for 1 hour (1:18,000 anti-rabbit-HRP in TBS-T). Blots were washed 3 times in TBST (0.1%) for 5 minutes at RT on the rocker. Signal was developed with Pierce WestFemto maximum sensitivity substrate for 5 minutes and blots imaged on BioRad ChemiDoc.
Sampling: Tumors were measured twice weekly. Terminal sacrifice was ˜18 hr after last dose; tumors were harvested, divided, and flash frozen. ERα levels were determined by immunoblotting.
At study termination, the tumors were removed from the mice, and ERα levels were determined by immunoblotting the tumor homogenates.
Sampling: tumors were measured twice weekly. Terminal sacrifice was ˜18 hr after last dose; tumors were harvested, divided, and flash frozen. ERα levels were determined by immunoblotting.

MCF7 xenograft = test: MCF7 orthotopic xenograft, combination with CDK4/6 inhibitor; type: in vivo, NOD/SCID mice
ESR1 (Y537S) PDX = ESR1 (Y537S) PDX model tumor growth inhibition; type: in vivo; settings: ESR1 (Y537S) PDX, fulvestrant 200 mg/kg SC twice/week, 2 weeks
ERα (ESR1 Y537S) = target: T2, ERα (ESR1 Y537S) (Homo sapiens, UniProt P03372, Y537S); test: Tumor ERα levels in ESR1 (Y537S) PDX model; type: in vivo; settings: ESR1 (Y537S) PDX, fulvestrant 200 mg/kg SC twice/week, 2 weeks
T2 construct: a hormone-independent patient-derived xenograft model; from tissue; host or cells: ESR1 (Y537S) patient-derived xenograft tumour grown in mice
T2 sequence (P03372 1-595 Y537S): T1 sequence (P03372 1-595) with Y537S

[1] = cited from earlier work; for progression free survival (PFS): minimum follow-up 18 months
ER = target: T3, ER (Homo sapiens, UniProt P03372); settings: after 6 months of fulvestrant treatment; cited from earlier work
T3 sequence (P03372 1-595): T1 sequence (P03372 1-595)

## C[C@]12CC[C@@H]3c4ccc(O)cc4C[C@@H](CCCCCCCCC[S+]([O-])CCCC(F)(F)C(F)(F)F)[C@H]3[C@@H]1CC[C@@H]2O (stereo partly shown) [Fulvestrant]
ERα
  % ERα ↓: None
MCF7 xenograft; fulvestrant 200 mg/kg SC
  Day 28 Tumor volume (mean ± SD): 489 ± 154 mm^3
  TGI (% vehicle): 46 % vehicle
MCF7 xenograft; single agent 200 mg/kg subcutaneous, twice/week for 2 weeks
  tumor growth inhibition (TGI): 46%
ESR1 (Y537S) PDX
  tumor growth inhibition (TGI): 62%
ERα (ESR1 Y537S)
  reduction of tumor ERα levels: 63%
[1]; fulvestrant 250 mg
  progression free survival (PFS): 5.4 months
  overall survival (OS): 22.8 months
[1]; fulvestrant 250 mg, CI 10.5-19.4%
  response rate: 14.6%
[1]; fulvestrant 500 mg
  progression free survival (PFS): 6.5 months
  overall survival (OS): 25.1 months
[1]; fulvestrant 500 mg, 95% CI 9.7-18.8%
  response rate: 13.8%
ER
  ER baseline levels remaining: up to 50%

Reference: patent US20220193072A1, “METHODS OF TREATING BREAST CANCER WITH TETRAHYDRONAPHTHALENE DERIVATIVES AS ESTROGEN RECEPTOR DEGRADER” (Arvinas Operations, Inc., priority 2020, published 2022)
